Measurements published in ChEMBL document CHEMBL1132508, “N,N-dialkyl-dipeptidylamines as novel N-type calcium channel blockers” (Bioorg Med Chem Lett, 1999).
Square brackets hold non-standard residues; d marks the D form. Peptide text beside a SMILES is read from it. * marks the point of attachment. NMeL = CN[C@@H](CC(C)C)C(=O)O; Bz = O=C(c1ccccc1)*; NHtBu = CC(C)(C)N*

Tests used:
[1] = target: Voltage-dependent N-type calcium channel subunit alpha-1B (Homo sapiens, UniProt Q00975); assay: In vitro inhibitory activity against N-type calcium channel in the IMR-32 human neuroblastoma cells; type: cell-based
Sequence of Voltage-dependent N-type calcium channel subunit alpha-1B (Q00975 whole entry): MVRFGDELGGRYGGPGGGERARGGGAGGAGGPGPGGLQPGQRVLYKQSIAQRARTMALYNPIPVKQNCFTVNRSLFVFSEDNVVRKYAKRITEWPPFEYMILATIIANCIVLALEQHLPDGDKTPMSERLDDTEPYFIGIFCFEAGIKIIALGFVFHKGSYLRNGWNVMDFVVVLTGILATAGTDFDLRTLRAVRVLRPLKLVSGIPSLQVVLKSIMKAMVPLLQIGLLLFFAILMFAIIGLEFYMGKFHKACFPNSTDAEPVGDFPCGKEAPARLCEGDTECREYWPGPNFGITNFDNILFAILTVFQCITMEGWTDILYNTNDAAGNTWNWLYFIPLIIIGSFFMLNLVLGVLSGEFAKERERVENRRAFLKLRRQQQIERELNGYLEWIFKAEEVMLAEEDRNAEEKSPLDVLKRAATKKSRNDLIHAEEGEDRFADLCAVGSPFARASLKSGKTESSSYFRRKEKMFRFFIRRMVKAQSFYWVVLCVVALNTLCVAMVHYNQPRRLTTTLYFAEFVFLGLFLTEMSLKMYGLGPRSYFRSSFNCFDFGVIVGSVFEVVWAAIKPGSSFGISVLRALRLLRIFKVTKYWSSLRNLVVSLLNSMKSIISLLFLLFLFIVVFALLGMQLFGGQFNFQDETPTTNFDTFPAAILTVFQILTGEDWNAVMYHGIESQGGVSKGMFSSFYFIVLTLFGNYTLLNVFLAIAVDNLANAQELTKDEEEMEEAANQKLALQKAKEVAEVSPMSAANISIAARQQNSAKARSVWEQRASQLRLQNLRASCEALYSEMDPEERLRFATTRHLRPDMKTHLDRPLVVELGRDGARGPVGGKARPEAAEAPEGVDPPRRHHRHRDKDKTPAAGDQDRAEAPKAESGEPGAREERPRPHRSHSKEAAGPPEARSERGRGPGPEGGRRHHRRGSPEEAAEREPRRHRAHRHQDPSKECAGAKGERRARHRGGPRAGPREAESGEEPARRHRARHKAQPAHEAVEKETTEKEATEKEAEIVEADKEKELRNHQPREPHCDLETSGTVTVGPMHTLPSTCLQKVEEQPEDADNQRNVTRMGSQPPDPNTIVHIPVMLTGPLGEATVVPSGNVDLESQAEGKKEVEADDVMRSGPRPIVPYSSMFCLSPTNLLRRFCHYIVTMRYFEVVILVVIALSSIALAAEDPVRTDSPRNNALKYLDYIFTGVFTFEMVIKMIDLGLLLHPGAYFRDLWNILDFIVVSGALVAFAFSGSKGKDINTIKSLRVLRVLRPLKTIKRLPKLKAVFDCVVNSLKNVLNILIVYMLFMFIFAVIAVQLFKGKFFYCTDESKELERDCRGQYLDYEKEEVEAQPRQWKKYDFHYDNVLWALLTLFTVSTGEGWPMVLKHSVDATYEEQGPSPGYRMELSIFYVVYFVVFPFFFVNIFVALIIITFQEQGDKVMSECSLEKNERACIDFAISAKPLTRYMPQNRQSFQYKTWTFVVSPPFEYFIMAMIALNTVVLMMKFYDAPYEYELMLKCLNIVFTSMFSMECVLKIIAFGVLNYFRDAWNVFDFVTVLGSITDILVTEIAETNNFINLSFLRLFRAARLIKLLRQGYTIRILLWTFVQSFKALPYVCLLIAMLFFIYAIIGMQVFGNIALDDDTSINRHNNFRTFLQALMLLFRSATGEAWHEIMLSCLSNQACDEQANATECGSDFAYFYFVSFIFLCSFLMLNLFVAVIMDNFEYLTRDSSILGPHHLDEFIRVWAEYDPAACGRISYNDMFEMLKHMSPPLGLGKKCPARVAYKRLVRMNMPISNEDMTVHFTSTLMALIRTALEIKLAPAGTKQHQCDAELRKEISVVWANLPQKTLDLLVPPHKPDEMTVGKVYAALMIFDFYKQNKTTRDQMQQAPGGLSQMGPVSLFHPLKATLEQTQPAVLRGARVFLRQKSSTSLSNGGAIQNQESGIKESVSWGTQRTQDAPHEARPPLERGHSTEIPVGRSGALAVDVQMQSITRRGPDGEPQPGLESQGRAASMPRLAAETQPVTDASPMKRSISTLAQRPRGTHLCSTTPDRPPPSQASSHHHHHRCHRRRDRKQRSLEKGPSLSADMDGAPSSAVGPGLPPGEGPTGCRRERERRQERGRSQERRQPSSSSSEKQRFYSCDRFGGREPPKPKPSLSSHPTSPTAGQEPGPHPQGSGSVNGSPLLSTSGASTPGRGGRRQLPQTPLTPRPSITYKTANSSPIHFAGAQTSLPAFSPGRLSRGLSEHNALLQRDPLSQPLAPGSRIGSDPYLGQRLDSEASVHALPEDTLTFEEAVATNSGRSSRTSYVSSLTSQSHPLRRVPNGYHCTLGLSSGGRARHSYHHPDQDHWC

Mus musculus [2] = assay: Ability to prevent the audiogenic seizure (tonic seizure phase) in DBA/2 mice (N = 5 mice/ dose tested) tested in vivo at a concentration of 10 mg/kg; type: functional
Mus musculus [3] = assay: Ability to prevent the audiogenic seizure (tonic seizure phase) in DBA/2 mice (N = 5 mice/ dose tested) tested in vivo at a concentration of 3 mg/kg; type: functional
Mus musculus [4] = assay: Ability to prevent the audiogenic seizure (tonic seizure phase) in DBA/2 mice (N = 5 mice/ dose tested) tested in vivo at a concentration of 100 mg/kg; type: functional

SMILES	IC50 [1]	further results
CCOC(=O)CN(C)[C@@H](CC(C)C)C(=O)N[C@@H](Cc1ccc(OC(=O)c2ccccc2)cc1)C(=O)NC(C)(C)C	4400 nM	–
CC(C)C[C@@H](C(=O)N[C@@H](Cc1ccc(OC(=O)c2ccccc2)cc1)C(=O)NC(C)(C)C)N1CCOCC1	6400 nM	–
CC(C)C[C@@H](C(=O)N[C@@H](Cc1ccc(OC(=O)c2ccccc2)cc1)C(=O)NC(C)(C)C)N(C)CCC(C)O (some centres undefined)	2200 nM	Protection (Mus musculus [2]): 40%
CC(C)C[C@@H](C(=O)N[C@@H](Cc1ccc(OC(=O)c2ccccc2)cc1)C(=O)NC(C)(C)C)N(C)C1CCOCC1	3100 nM	–
CC(C)C[C@@H](C(=O)N[C@@H](Cc1ccc(OC(=O)c2ccccc2)cc1)C(=O)NC(C)(C)C)N(C)C(C)C	2800 nM	–
CC(C)C[C@@H](C(=O)N[C@@H](Cc1ccc(OC(=O)c2ccccc2)cc1)C(=O)NC(C)(C)C)N(C)C	2300 nM	–
CC(C)C[C@H](N)C(=O)N[C@@H](Cc1ccc(OC(=O)c2ccccc2)cc1)C(=O)NC(C)(C)C (H-Leu-Tyr(Bz)-NHtBu)	3800 nM	–
CN[C@@H](CC(C)C)C(=O)N[C@@H](Cc1ccc(OC(=O)c2ccccc2)cc1)C(=O)NC(C)(C)C (H-[NMeL]-Tyr(Bz)-NHtBu)	2300 nM	–

These reach a lower IC50 [1]. Values come first.

IC50 [1]	SMILES	further results
1500 nM	CCC(C)N(C)[C@@H](CC(C)C)C(=O)N[C@@H](Cc1ccc(OC(=O)c2ccccc2)cc1)C(=O)NC(C)(C)C (some centres undefined)	–
1400 nM	CC(C)C[C@@H](C(=O)N[C@@H](Cc1ccc(OC(=O)c2ccccc2)cc1)C(=O)NC(C)(C)C)N1CCCCC1	–
700 nM	CC(C)C[C@@H](C(=O)N[C@@H](Cc1ccc(OC(=O)c2ccccc2)cc1)C(=O)NC(C)(C)C)N(C)CC1CCCCC1	Protection (Mus musculus [2]): 20%
590 nM	CC(C)C[C@H](NC(=O)N1CCCCCC1)C(=O)N[C@@H](Cc1ccc(OC(=O)c2ccccc2)cc1)C(=O)NC(C)(C)C	–
400 nM	CC(C)C[C@@H](C(=O)N[C@@H](Cc1ccc(OC(=O)c2ccccc2)cc1)C(=O)NC(C)(C)C)N(C)CCC(C)(C)C	–
380 nM	CC(C)C[C@@H](C(=O)N[C@@H](Cc1ccc(OC(=O)c2ccccc2)cc1)C(=O)NC(C)(C)C)N(C)CC(C)C	–
320 nM	CC(C)C[C@H](NC(=O)N1CCCCCC1)C(=O)N[C@@H](Cc1ccc(OC(=O)c2ccccc2)cc1)C(=O)OC(C)(C)C	–
320 nM	CC(C)CCN(C)[C@@H](CC(C)C)C(=O)N[C@@H](Cc1ccc(OC(=O)c2ccccc2)cc1)C(=O)NC(C)(C)C	Protection (Mus musculus [3]): 20%; Protection (Mus musculus [2]): 80%
280 nM	CCCCN(C)[C@@H](CC(C)C)C(=O)N[C@@H](Cc1ccc(OC(=O)c2ccccc2)cc1)C(=O)NC(C)(C)C	–
200 nM	CC(C)C[C@@H](C(=O)N[C@@H](Cc1ccc(OC(=O)c2ccccc2)cc1)C(=O)NC(C)(C)C)N(C)C1CCCCC1	Protection (Mus musculus [4]): 100%; Protection (Mus musculus [3]): 20%
